# According to ChEMBL document CHEMBL1156876, “Design and study of peptide-based inhibitors of amylin cytotoxicity” (Bioorg Med Chem Lett, 2010):
# Non-standard residues stand in square brackets, D forms with d. Residues, ends and D or L forms follow the SMILES beside them. NMeH = CN[C@@H](Cc1c[nH]cn1)C(=O)O; NMeF = CN[C@@H](Cc1ccccc1)C(=O)O; NMeI = CC[C@H](C)[C@H](NC)C(=O)O; NMeT = CN[C@H](C(=O)O)[C@@H](C)O; NMeN = CN[C@@H](CC(N)=O)C(=O)O; NMeL = CN[C@@H](CC(C)C)C(=O)O; NMeV = CN[C@H](C(=O)O)C(C)C; NMeS = CN[C@@H](CO)C(=O)O; NMeA = CN[C@@H](C)C(=O)O; Sar = CNCC(=O)O
# Legend:
# [1] = Cytotoxicity against rat RIN5F cells at 225 uM; type: cell-based
# [2] = Inhibition of amylin-induced cytotoxicity in rat RIN5F cells at 225 uM after 24 hrs by MTT assay relative to control; type: functional; set-up: scale not given: the % may be the effect or the level left
Compound,Activity [1],Activity [2] [%]
H-TQRLA-NH2,Non-toxic,50
CC(C)[C@@H](C(=O)N(C)CC(=O)N(C)[C@@H](CO)C(N)=O)N(C)C(=O)[C@H](CC(N)=O)N(C)C(=O)[C@H]([C@@H](C)O)N(C)C(=O)[C@@H](N)CO (H-S[NMeT][NMeN][NMeV][Sar][NMeS]-NH2),Non-toxic,
CC(C)C[C@@H](C(=O)N(C)[C@@H](C)C(N)=O)N(C)C(=O)[C@H](CCCNC(=N)N)N(C)C(=O)[C@H](CCC(N)=O)N(C)C(=O)[C@@H](N)[C@H](C)O,Non-toxic,
H-NFGAIL-NH2,Non-toxic,50
H-STNVGS-NH2,Non-toxic,18
CC[C@H](C)[C@@H](C(=O)N(C)[C@@H](CC(C)C)C(N)=O)N(C)C(=O)[C@H](C)N(C)C(=O)CN(C)C(=O)[C@H](Cc1ccccc1)N(C)C(=O)[C@@H](N)CC(N)=O (H-N[NMeF][Sar][NMeA][NMeI][NMeL]-NH2),Non-toxic,
CC(C)C[C@@H](C(=O)N(C)[C@H](C(=O)N(C)[C@@H](Cc1cnc[nH]1)C(=O)N(C)[C@@H](CO)C(=O)N(C)[C@@H](CO)C(N)=O)C(C)C)N(C)C(=O)[C@@H](N)Cc1ccccc1 (H-F[NMeL][NMeV][NMeH][NMeS][NMeS]-NH2),Non-toxic,
H-FLVHSS-NH2,Non-toxic,20
C[C@H](NC(=O)[C@@H](NC(=O)[C@@H](N)CC(N)=O)[C@@H](C)O)C(=O)N[C@H](C(N)=O)[C@@H](C)O (H-NTAT-NH2),Non-toxic,25
C[C@@H](O)[C@@H](C(=O)N(C)[C@@H](C)C(=O)N(C)[C@H](C(N)=O)[C@@H](C)O)N(C)C(=O)[C@@H](N)CC(N)=O (H-N[NMeT][NMeA][NMeT]-NH2),Non-toxic,
